Source: patent US11079373B2, “Biomarker detection methods and systems and kits for practicing same” (The Board of Trustees of the Leland Stanford Junior …, priority 2015, dated 2021)

How the values were obtained:
Type in all cases: cell-based, human
[1] = system: peripheral blood mononuclear cells (PBMC); experiment: Cytometric Bead Array (CBA) IFNγ secretion detection in culture media of PHA-treated PBMC; settings: 16 h, culture medium
Experimental: One hundred thousand peripheral blood mononuclear cells (0.1×10^6 PBMC) in 100 μL of 10% FBS RPMI 1640 containing varying concentrations of PHA were seeded in each well in a 96 well plate and incubated in a humidified 37° C., 5% CO2 incubator for 16 h. The plate was centrifuged at 2,500 g for 3 min and 50 μL culture medium of each well was carefully transferred into each corresponding test well in a new 96 well plate. After adding 50 μL INFγ capture beads (BD Biosciences; Cat. 558269) into each well, the plate was incubated at room temperature (RT) for 60 min with constant shaking on a plate shaker. After adding 50 μL INFγ PE-detection reagents (BD Biosciences; Cat. 51-9004031), the plate was continually incubated at RT for additional 2 h. The beads were then washed three times with 200 μL wash buffer (0.05% Tween-20 in PBS) and acquired on a BD FACSCanto II flow cytometer. The concentrations of INFγ in the culture media from each well were extrapolated from the standard curve generated from a series of known INFγ standards in the same batch of CBA assay.

[2] = system: C.T.L. cells; experiment: Two-color IFNγ/IL-2 detection by FLOWSPOT; settings: PHA at various concentrations, 16 h
Experimental: (§1) One hundred thousand peripheral blood mononuclear cells (0.1×10^6 PBMC) or purified lymphocytes were mixed with 7,000 capture microspheres and distributed into each assay well of a 96-well U bottom plate. The plate was centrifuged at 1,500×g for 5 min and the supernatant was removed. The pellet of cells and capture beads were resuspended in 200 μL culture medium with or without testing reagent(s) or stimulus(i), then the plate was incubated in a humidified 37° C., 5% CO2 incubator for 10 min to 7 days (usually 2 to 16 h). After incubation, the cells were lysed in NP-40 lysis buffer (10 mM Tris-HCl, pH 7.4, 10 mM NaCl, 3 mM MgCl2, 0.5% NP-40). The capture beads were washed twice with 3% HBSA (3% BSA in HBSS) and incubated with 50 μL PE-labeled anti-Bio-marker for 60 min at room temperature. After two washes of 3% HBSA, the beads were acquired and analyzed on a BD FACSCanto II flow cytometer. The number of positive spots was calculated based on the following formulas: Percent positive spots (%)=Number of positive particles acquired/Total number of particles acquired×100 Total number of positive spots=Percent positive spots (%)×7,000 (where 7,000=total number of particles/test)
One hundred thousand C.T.L. cells were co-cultured with a mix of IFNγ and IL-2 capture microparticles (7,000 each with different fluorescent ID codes) for 16 h in the presence of PHA at various concentrations.

[3] = system: PBMC cells; experiment: Three-color IFNγ/IL-2/GrB detection by […]; settings: PHA 20 ug/mL, 16 h
[4] = system: peripheral blood mononuclear cells (PBMC); experiment: FlowSpot IFNγ secretion in situ detection, PBMC co-cultured with IFNγ capture microparticles in presence of PHA; settings: 16 h; for FLOWSPOT SPOTS (n) (IFNγ): percent positive × 7,000
Experimental: as §1
In parallel, 0.1×10^6 PBMC cells from the same donor were co-cultured with 7,000 IFNγ capture microparticles in a humidified 37° C., 5% CO2 incubator for 16 h in the presence of PHA at various concentrations. After incubation, the cells were lysed in NP-40 lysis buffer (10 mM Tris-HCl, pH 7.4, 10 mM NaCl, 3 mM MgCl2, 0.5% NP-40). The capture beads were washed twice with 3% HBSA (3% BSA in HBSS) and incubated with 50 μL PE-labeled anti-IFNγ for 60 min at room temperature. After an additional two washes of 3% HBSA, the beads were acquired and analyzed on a BD FACSCanto II flow cytometer.

Substance: phytohaemagglutinin [PHA]
- CBA IFNγ ([1]; PHA 0.5 μg/mL, from standard curve): 17 pg/mL
- CBA IFNγ ([1]; PHA 1 μg/mL): 36 pg/mL
- CBA IFNγ ([1]; PHA 2.5 μg/mL): 76 pg/mL
- CBA IFNγ ([1]; PHA 5 μg/mL): 174 pg/mL
- CBA IFNγ ([1]; PHA 10 μg/mL): 281 pg/mL
- CBA IFNγ ([1]; PHA 15 μg/mL): 344 pg/mL
- CBA IFNγ ([1]; PHA 20 μg/mL): 312 pg/mL
- IFNγ response to PHA [2]: dose-dependent responses
- IL-2 response to PHA [2]: dose-dependent responses
- median channel value (MCV), intensity of IFNγ secretion [3]: 653
- median channel value (MCV), intensity of IL-2 secretion [3]: 407
- number of positive spots for GrB [3]: 630 spots
- number of positive spots for IFNγ [3]: 5,320 spots
- number of positive spots for IL-2 [3]: 4,340 spots
- FLOWSPOT MFI (IFNγ) ([4]; PHA 0.5 μg/mL): 166
- FLOWSPOT % Positive Spot (IFNγ) ([4]; PHA 0.5 μg/mL, 0.1×10^6 PBMC, 7,000 microparticles): 24%
- FLOWSPOT SPOTS (n) (IFNγ) ([4]; PHA 0.5 μg/mL): 1680 n
- FLOWSPOT % Positive Spot (IFNγ) ([4]; PHA 1 μg/mL): 35%
- FLOWSPOT MFI (IFNγ) ([4]; PHA 1 μg/mL): 659
- FLOWSPOT SPOTS (n) (IFNγ) ([4]; PHA 1 μg/mL): 2450 n
- FLOWSPOT % Positive Spot (IFNγ) ([4]; PHA 2.5 μg/mL): 43%
- FLOWSPOT MFI (IFNγ) ([4]; PHA 2.5 μg/mL): 4050
- FLOWSPOT SPOTS (n) (IFNγ) ([4]; PHA 2.5 μg/mL): 3010 n
- FLOWSPOT % Positive Spot (IFNγ) ([4]; PHA 5 μg/mL): 45%
- FLOWSPOT MFI (IFNγ) ([4]; PHA 5 μg/mL): 9541
- FLOWSPOT SPOTS (n) (IFNγ) ([4]; PHA 5 μg/mL): 3150 n
- FLOWSPOT % Positive Spot (IFNγ) ([4]; PHA 10 μg/mL): 56%
- FLOWSPOT MFI (IFNγ) ([4]; PHA 10 μg/mL): 19594
- FLOWSPOT SPOTS (n) (IFNγ) ([4]; PHA 10 μg/mL): 3920 n
- FLOWSPOT % Positive Spot (IFNγ) ([4]; PHA 15 μg/mL): 57%
- FLOWSPOT MFI (IFNγ) ([4]; PHA 15 μg/mL): 21680
- FLOWSPOT SPOTS (n) (IFNγ) ([4]; PHA 15 μg/mL): 3990 n
- FLOWSPOT % Positive Spot (IFNγ) ([4]; PHA 20 μg/mL): 55%
- FLOWSPOT MFI (IFNγ) ([4]; PHA 20 μg/mL): 22241
- FLOWSPOT SPOTS (n) (IFNγ) ([4]; PHA 20 μg/mL): 3850 n
